Experimental findings from US8604053B2, “TRPV1 antagonists” (AbbVie Inc., priority 2008, dated 2013) are described below.

The target in series [1] is T1, human TRPV1 receptor (hTRPV1) (Homo sapiens, UniProt Q8NER1).
T1 construct: expressed in transfected cells
As to the kind of experiment: Capsaicin activation assay (Ca2+ influx, FLIPR). The class given is cell-based. The note with it: hTRPV1 in 1321N1 cells, 0.05 μM capsaicin. The protocol:
Dulbecco's modified Eagle medium (D-MEM) (with 4.5 mg/mL glucose) and fetal bovine serum were obtained from Hyclone Laboratories, Inc. (Logan, Utah). Dulbecco's phosphate-buffered saline (D-PBS) (with 1 mg/mL glucose and 3.6 mg/l Na pyruvate, without phenol red), L-glutamine, hygromycin B, and Lipofectamine® were obtained from Life Technologies (Grand Island, N.Y.). G418 sulfate was obtained from Calbiochem-Novabiochem Corp. (San Diego, Calif.). Capsaicin (8-methyl-N-vanillyl-6-nonenamide) was obtained from Sigma-Aldrich, Co. (St. Louis, Mo.). Fluo-4 AM (N-[4-[6-[(acetyloxy)methoxy]-2,7-difluoro-3-oxo-3H-xanthen-9-yl]-2-[2-[2-[bis[2-[(acetyloxy)methoxy]-2-oxyethyl]amino]-5-methyl-phenoxy[ethoxy]phenyl]-N-[2-[(acetyloxy)methoxy]-2-oxyethyl]-glycine, (acetyloxy)methyl ester) was purchased from Molecular Probes (Eugene, Oreg.).
The cDNAs for the human TRPV1 receptor (hTRPV1) were isolated by reverse transcriptase-polymerase chain reaction (RT-PCR) from human small intestine poly A+ RNA supplied by Clontech (Palo Alto, Calif.) using primers designed surrounding the initiation and termination codons identical to the published sequences (Hayes et al. Pain 2000, 88, 205-215). The resulting cDNA PCR products were subcloned into pClneo mammalian expression vector (Promega) and fully sequenced using fluorescent dye-terminator reagents (Prism, Perkin-Elmer Applied Biosystems Division) and a Perkin-Elmer Applied Biosystems Model 373 DNA sequencer or Model 310 genetic analyzer. Expression plasmids encoding the hTRPV1 cDNA were transfected individually into 1321N1 human astrocytoma cells using Lipofectamine®. Forty-eight hours after transfection, the neomycin-resistant cells were selected with growth medium containing 800 μg/mL Geneticin (Gibco BRL). Surviving individual colonies were isolated and screened for TRPV1 receptor activity. Cells expressing recombinant homomeric TRPV1 receptors were maintained at 37° C. in D-MEM containing 4 mM L-glutamine, 300 μg/mL G418 (Cal-biochem) and 10% fetal bovine serum under a humidified 5% CO2 atmosphere.
The functional activity of compounds at the TRPV1 receptor was determined with a Ca^2+ influx assay and measurement of intracellular Ca^2+ levels ([Ca^2+]i). All compounds were tested over an 11-point half-log concentration range. Compound solutions were prepared in D-PBS (4× final concentration), and diluted serially across 96-well v-bottom tissue culture plates using a Biomek 2000 robotic automation workstation (Beckman-Coulter, Inc., Fullerton, Calif.). A 0.2 μM solution of the TRPV1 agonist capsaicin was also prepared in D-PBS. The fluorescent Ca^2+ chelating dye Fluo-4 AM was used as an indicator of the relative levels of [Ca^2+]i in a 96-well format using a Fluorescence Imaging Plate Reader (FLIPR)(Molecular Devices, Sunnyvale, Calif.). Cells were grown to confluency in 96-well black-walled tissue culture plates. Then, prior to the assay, the cells were loaded with 100 μL per well of Fluo-4 AM (2 μM, in D-PBS) for 1-2 hours at 23° C. Washing of the cells was performed to remove extracellular Fluo-4 AM (2×1 mL D-PBS per well), and afterward, the cells were placed in the reading chamber of the FLIPR instrument. 50 μL of the compound solutions were added to the cells at the 10 second time mark of the experimental run. Then, after a 3-minute time delay, 50 μL of the capsaicin solution was added at the, 190 second time mark (0.05 μM final concentration)(final volume=200 μL) to challenge the TRPV1 receptor. Time length of the experimental run was 240 seconds. Fluorescence readings were made at 1 to 5 second intervals over the course of the experimental run. The peak increase in relative fluorescence units (minus baseline) was calculated from the 190 second time mark to the end of the experimental run, and expressed as a percentage of the 0.05 μM capsaicin (control) response. […]

The nature of series [2]: Rat telemetry protocol, core body temperature. The note with it: core body temperature of rats one hour post dosing, 100 μmol/kg p.o., relative to vehicle. The format is in vivo. The protocol: Male, Sprague Dawley rats, 225-250 grams were anesthetized with Sevoflurane (Abbott Laboratories). Rats were placed on a heating pad and covered with a sterile surgical drape. A ventral midline abdominal incision was made and sterile cotton tip applicators were used to gently move internal tissue and expose the abdominal aorta for implantation of the telemetry catheter (Data Sciences International; TL11M2-050-PXT). Blood flow was temporarily stopped to the lower extremities (5-7 min) with Diffenbach clamps to allow the insertion of the telemetry catheter into the abdominal aorta. Once inserted, a sterile cellulose patch was placed over the catheter/aorta and secured using a small amount of tissue adhesive (Vetbond, 3M). Once catheter placement was complete, the clamps were removed and blood flow was restored to the lower extremities. Thetransmitter was placed in the intraperitoneal cavity. The transmitter suture rib was sewn into the abdominal sutures to secure it in place. The skin was closed using sterile wound clips and the animal removed from Sevoflurane. Buprenex ([…] s.c.; Phoenix) was administered for post-operative analgesia. Animals were maintained on a heating pad until ambulatory, and then individually housed with food and water ad lib. Surgical staples were removed after 7-10 days post-implantation. Rats were allowed a 2-week post-surgical recovery period before treatment with test compound. Oral dosing (p.o.) was at time zero, with rats receiving a single dose of vehicle (10% EtOH, 20% Tween-80, 70% PEG-400) or a 100 μmol/kg dose of compound dissolved in vehicle. Temperature measurements were recorded every 15 minutes for the duration of the study (24 hours).
Representative compounds described herein have the novel property of having limited transient temperature effect on core body temperature of a mammal (e.g. rats). For example, compounds tested alter core body temperature of rats by less than about +0.5° C. at about 1 hour after administration of a single dose (100 μmol/kg) of the test compounds orally, for example, in the range from about −2.5° C. to less than about +0.5° C., from about −0.5° C. to less than about +0.5° C.; or from about −0.3° C. to about +0.3° C.
The term “core body temperature” as used herein, means the temperature measured in the intraperitoneal cavity.

The target in the next series is T2, CYP2C9 (Homo sapiens, UniProt P11712).
T2 construct: human liver microsomes (BD Gentest); tissue BD Gentest; host or cells: human liver microsomes
As to the kind of experiment: CYP2C9 inhibition assay. The note with it: pH 7.4, probe Luciferin-H (100 μM final), human liver microsomes, substrate Luciferin-H, read-out: CYP2C9 % inh @ 2.2 μM. The format is in vitro ADME. The protocol:
Stock solutions of test compounds were assayed in 96-well format for their ability to inhibit CYP2C9, CYP2D6, or CYP3A4 mediated metabolism of test substrates. Luciferin-H was used as the substrate for CYP2C9; 3-[2-(N,N-diethyl-N-methylammonium)ethyl]-7-methoxy-4-methylcoumarin (AMMC) was used as the substrate for CYP2D6; 7-benzyloxyquiniline (BZQ) was used as the substrate for CYP3A4. For each subtype, positive controls (sulphaphenazole in the case of CYP2C9; quinidine in the case of CYP2D6, ketoconazole in the case of CYP3A4) were used to validate assay results run in duplicate.
Pre-Incubation Mixture Preparation for CYP2C9 and CYP2D6: A pre-incubation mixture was prepared by combining 100 mM phosphate buffer (9.12 mL; pH 7.4), human liver microsomes (BD Gentest, 240 itt; final concentration: 0.4 mg/mL), and 10 mM nicotinamide adenine dinucleotide phosphate in 65.4 mM MgCl2 hexahydrate (120 μL; final concentration: 125 μM and 818 μM, respectively). To this was mixture is added a ‘regeneration’ mixture (120 μL) of 333 mM glucose-6-phosphate and 40 U/mL glucose-6-phosphate dehydrogenase in 5 mM sodium citrate (final concentration: 4 mM, 0.5 U/mL, and 0.06 mM, respectively).
Substrate Mixture Preparation for CYP2C9: To a solution of 25 mM phosphate buffer, (2.16 mL, pH 7.4) was added 5 mM Luciferin-H (Promega P450 Glo Assay V8792, 240 μL; final solution concentration 0.5 mM, final assay concentration 100 μM).
CYP2C9 Inhibiton Assay: To each well in the assay plate containing varying concentrations of test compound or control compound in DMSO (10 μL) Pre-Incubation Mixture (40 itt) was added to the wells and the assay plate was pre-incubated for 10 minutes at 37° C., with shaking or rocking. CYP2C9 Substrate Mixture (10 μL) was added to all wells and the assay plate was incubated for an additional 25 minutes at 37° C., with shaking or rocking. Final DMSO concentration was 1%. Luciferin-H detection reagent (Promega kit V8792, 50 μL) was added to all wells. The plate was then vortexed at ambient temperature for between 20 minutes and 2 hours, and the luminescence of each well was then read and recorded.

T1 sequence (Q8NER1 whole entry): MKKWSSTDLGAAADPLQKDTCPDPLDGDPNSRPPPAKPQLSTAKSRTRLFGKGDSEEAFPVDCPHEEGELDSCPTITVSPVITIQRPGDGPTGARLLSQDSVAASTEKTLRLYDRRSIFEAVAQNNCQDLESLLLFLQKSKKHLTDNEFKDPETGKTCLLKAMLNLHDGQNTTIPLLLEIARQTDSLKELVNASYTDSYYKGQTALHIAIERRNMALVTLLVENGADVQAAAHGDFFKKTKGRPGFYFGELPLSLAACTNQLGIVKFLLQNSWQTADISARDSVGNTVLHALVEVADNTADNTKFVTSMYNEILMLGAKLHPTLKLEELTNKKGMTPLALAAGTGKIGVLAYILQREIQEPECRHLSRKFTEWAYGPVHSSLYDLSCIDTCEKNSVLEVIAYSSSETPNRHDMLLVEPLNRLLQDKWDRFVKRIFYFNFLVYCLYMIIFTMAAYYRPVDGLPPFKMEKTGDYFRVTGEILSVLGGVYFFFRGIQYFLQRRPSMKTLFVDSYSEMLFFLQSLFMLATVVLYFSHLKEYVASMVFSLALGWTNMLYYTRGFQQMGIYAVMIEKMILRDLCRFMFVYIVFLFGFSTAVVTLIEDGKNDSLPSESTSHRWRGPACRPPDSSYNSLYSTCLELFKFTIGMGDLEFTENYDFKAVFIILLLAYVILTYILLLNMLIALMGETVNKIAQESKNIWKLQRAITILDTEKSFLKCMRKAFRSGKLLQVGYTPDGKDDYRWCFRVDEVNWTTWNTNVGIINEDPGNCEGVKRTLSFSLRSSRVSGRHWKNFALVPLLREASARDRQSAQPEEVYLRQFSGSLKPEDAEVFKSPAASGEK
T2 sequence (P11712 whole entry): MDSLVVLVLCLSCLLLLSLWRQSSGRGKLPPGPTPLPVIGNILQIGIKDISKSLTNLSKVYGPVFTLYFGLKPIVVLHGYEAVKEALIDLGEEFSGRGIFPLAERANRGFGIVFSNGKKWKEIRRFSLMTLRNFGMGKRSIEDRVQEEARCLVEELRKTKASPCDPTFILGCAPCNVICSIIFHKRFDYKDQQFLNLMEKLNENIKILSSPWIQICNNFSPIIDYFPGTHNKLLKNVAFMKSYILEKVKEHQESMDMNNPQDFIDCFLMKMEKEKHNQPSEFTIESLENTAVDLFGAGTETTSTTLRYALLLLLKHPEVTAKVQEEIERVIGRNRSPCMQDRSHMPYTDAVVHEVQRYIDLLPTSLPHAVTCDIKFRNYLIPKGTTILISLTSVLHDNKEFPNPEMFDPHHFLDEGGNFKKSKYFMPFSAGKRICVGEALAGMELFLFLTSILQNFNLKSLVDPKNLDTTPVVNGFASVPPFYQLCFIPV

`O=C(Nc1cccc2c1C[C@H](O)CC2)N[C@@H]1CC2(CCC2)Oc2ccc(F)cc21` [Example 6, N-[(4R)-6-fluoro-3,3′,4,4′-tetrahydro-2′H-spiro[chromene-2,1′-cyclobutan]-4-yl]-N′-[(7R)-7-hydroxy-5,6,7,8-tetrahydronaphthalen-1-yl]urea]: in series [1], the IC50 (usually the concentration that gives 50% inhibition) turned out to be 0.028 µM. Moreover, the “Δ Temp (° C.)” value in series [2] came out at 0.2 °C.
In the same order, the values of `Cn1ncc2c(NC(=O)N[C@@H]3CC4(CCC4)Oc4ccc(F)cc43)cccc21` [Example 7, N-[(4R)-6-fluoro-3,3′,4,4′-tetrahydro-2′H-spiro[chromene-2,1′-cyclobutan]-4-yl]-N′-(1-methyl-1H-indazol-4-yl)urea] are 0.078 µM and 0.1 °C.
In series [1], `O=C(Nc1cccc2[nH]ncc12)N[C@@H]1CC2(CCC2)Oc2ccc(F)cc21` [Example 8, N-[(4R)-6-fluoro-3,3′,4,4′-tetrahydro-2′H-spiro[chromene-2,1′-cyclobutan]-4-yl]-N′-1H-indazol-4-ylurea] registered an IC50 of 0.076 µM. In series [2], the “Δ Temp (° C.)” value turned out to be 0.1 °C.
In series [1], `CC1(C)C[C@@H](NC(=O)Nc2cccc3[nH]ncc23)c2ccc(C(F)(F)F)cc2O1` [Example 41, N-[(4R)-2,2-dimethyl-7-(trifluoromethyl)-3,4-dihydro-2H-chromen-4-yl]-N′-1H-indazol-4-ylurea] yielded an IC50 of 0.016 µM. In addition, the “Δ Temp (° C.)” value in series [2] is −2.5 °C.
On the same counts, the results for `CCC1(CC)C[C@@H](NC(=O)Nc2cccc3c2cnn3C)c2cccc(F)c2O1` [Example 50, N-[(4R)-2,2-diethyl-8-fluoro-3,4-dihydro-2H-chromen-4-yl]-N′-(1-methyl-1H-indazol-4-yl)urea] are 0.035 µM and 0.1 °C.
On to `CCC1(CC)C[C@@H](NC(=O)Nc2cccc3[nH]ncc23)c2cc(F)ccc2O1` [Example 58, N-[(4R)-2,2-diethyl-6-fluoro-3,4-dihydro-2H-chromen-4-yl]-N′-1H-indazol-4-ylurea], for which the midpoint of inhibition in series [1], the IC50, lay at 0.019 µM. The “Δ Temp (° C.)” value in series [2] turned out to be 0.3 °C.
On the same counts, the results for `CCCC1(CCC)C[C@@H](NC(=O)Nc2cccc3c2cnn3C)c2cccc(F)c2O1` [Example 67, N-[(4R)-8-fluoro-2,2-dipropyl-3,4-dihydro-2H-chromen-4-yl]-N′-(1-methyl-1H-indazol-4-yl)urea] are 0.018 µM and −0.2 °C.
In the same order, the values of `O=C(Nc1cccc2[nH]ncc12)N[C@@H]1CCOc2c(OC(F)(F)F)cccc21` [Example 70, N-1H-indazol-4-yl-N′-[(4R)-8-(trifluoromethoxy)-3,4-dihydro-2H-chromen-4-yl]urea] are 0.005 µM and 0.3 °C.
In the same order, the values of `CCC1(CC)C[C@@H](NC(=O)Nc2cccc3c(C)nccc23)c2cc(F)ccc2O1` [Example 86, N-[(4R)-2,2-diethyl-6-fluoro-3,4-dihydro-2H-chromen-4-yl]-N′-(1-methylisoquinolin-5-yl)urea] are 0.01 µM and −1.7 °C.
Turning to `Cn1ncc2c(NC(=O)N[C@@H]3CC(CF)(CF)Oc4c(OC(F)(F)F)cccc43)cccc21` [Example 88, N-[(4R)-2,2-bis(fluoromethyl)-8-(trifluoromethoxy)-3,4-dihydro-2H-chromen-4-yl]-N′-(1-methyl-1H-indazol-4-yl)urea], the IC50 in series [1] is 0.009 µM. Besides, the “Δ Temp (° C.)” value in series [2] was −0.3 °C.
As for `CC1(C)C[C@@H](NC(=O)Nc2cccc3cnc(N)cc23)c2ccc(F)cc2O1` [Example 106, N-(3-aminoisoquinolin-5-yl)-N′-[(4R)-7-fluoro-2,2-dimethyl-3,4-dihydro-2H-chromen-4-yl]urea], the inhibition at 25 min, 2.2 µM on CYP2C9 is 13%. Further, in series [1], it took 0.021 µM to reach half-maximal inhibition (IC50). For the same compound, the “Δ Temp (° C.)” value in series [2] came out at 0.3 °C.
